Test results from ChEMBL document CHEMBL1131812, “Novel conformationally restricted tetracyclic analogs of delta8-tetrahydrocannabinol” (Bioorg Med Chem Lett, 1999).
pKi: −log10 of the molar value.

Experiments:
Cannabinoid receptor 2 = Cannabinoid receptor 2 (Mus musculus, UniProt P47936); test: Binding affinity towards Cannabinoid receptor 2 in mouse spleen membranes; format: cell membranes
Cannabinoid receptor 1 = Cannabinoid receptor 1 (Rattus norvegicus, UniProt P20272); test: Binding affinity towards cannabinoid receptor 1 in rat forebrain membranes.; format: cell membranes
Chain of Cannabinoid receptor 1 (P20272 whole entry): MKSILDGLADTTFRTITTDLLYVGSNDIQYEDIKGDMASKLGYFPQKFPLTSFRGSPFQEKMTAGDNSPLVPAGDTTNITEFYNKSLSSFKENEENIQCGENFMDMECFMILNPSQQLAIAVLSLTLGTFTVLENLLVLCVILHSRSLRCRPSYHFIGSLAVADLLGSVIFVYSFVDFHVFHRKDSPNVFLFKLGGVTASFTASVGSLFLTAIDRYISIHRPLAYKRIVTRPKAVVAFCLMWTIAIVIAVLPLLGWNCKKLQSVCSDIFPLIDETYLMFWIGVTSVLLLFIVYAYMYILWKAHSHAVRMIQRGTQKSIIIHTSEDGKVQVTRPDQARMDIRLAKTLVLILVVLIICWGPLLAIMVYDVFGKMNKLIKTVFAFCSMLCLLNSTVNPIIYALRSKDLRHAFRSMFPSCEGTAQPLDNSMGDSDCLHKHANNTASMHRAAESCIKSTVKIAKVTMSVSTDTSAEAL

Chain of Cannabinoid receptor 2 (P47936 whole entry): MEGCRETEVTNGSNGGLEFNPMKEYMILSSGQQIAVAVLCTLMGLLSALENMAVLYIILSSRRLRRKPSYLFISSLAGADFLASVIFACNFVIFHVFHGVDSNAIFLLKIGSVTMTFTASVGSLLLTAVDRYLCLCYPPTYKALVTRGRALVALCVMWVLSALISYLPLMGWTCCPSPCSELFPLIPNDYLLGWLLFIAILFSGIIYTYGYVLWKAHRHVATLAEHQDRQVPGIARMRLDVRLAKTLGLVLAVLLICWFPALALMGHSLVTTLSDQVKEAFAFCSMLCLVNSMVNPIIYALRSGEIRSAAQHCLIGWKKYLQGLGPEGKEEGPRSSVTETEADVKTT

Row | Structure (SMILES) | pKi (Cannabinoid receptor 2) | pKi (Cannabinoid receptor 1)
1 | CCCCCCC1CCCc2c1cc1c(c2O)[C@@H]2CC(C)=CC[C@H]2C(C)(C)O1 (stereo partly drawn) | 7.23 | 7.65
2 | CCCCCC1CCc2c(cc3c(c2O)[C@@H]2CC(C)=CC[C@H]2C(C)(C)O3)C1 (stereo partly drawn) | 6.79 | 6.40
3 | CCCCCCC1CCCc2c1cc(O)c1c2OC(C)(C)[C@@H]2CC=C(C)C[C@@H]12 (stereo partly drawn) | 6.34 | 6.27
4 | CCCCCCCc1cc(O)c2c(c1)OC(C)(C)[C@@H]1CC=C(C)C[C@@H]21 | 9.41 | 9.37
